Assay results reported in the kinase profiling compilation of Christmann-Franck et al. (2016).

Tests used:
Assay in all cases: radiometric filter-binding kinase assay
[1] = molecular target: BRSK1 (human) (UniProt Q8TDC3)
[2] = molecular target: BRSK2 (human) (UniProt Q8IWQ3)
[3] = molecular target: CAMKK2 (human) (UniProt Q96RR4)
[4] = molecular target: DAPK1 (human) (UniProt P53355)
[5] = molecular target: DYRK1A (human) (UniProt Q13627)
[6] = molecular target: EEF2K (human) (UniProt O00418)
[7] = molecular target: EPHB4 (human) (UniProt P54760)
[8] = molecular target: ERBB4 (human) (UniProt Q15303)
[9] = molecular target: FGFR1 (human) (UniProt P11362)
[10] = molecular target: GSK3B (human) (UniProt P49841)
[11] = molecular target: HIPK3 (human) (UniProt Q9H422)
[12] = molecular target: IGF1R (human) (UniProt P08069)
[13] = molecular target: IKBKE (human) (UniProt Q14164)
[14] = molecular target: MAP2K2 (human) (UniProt P36507)
[15] = molecular target: MAP2K6 (human) (UniProt P52564)
[16] = molecular target: MAP3K5 (human) (UniProt Q99683)
[17] = molecular target: MAPK12 (human) (UniProt P53778)
[18] = molecular target: MAPK13 (human) (UniProt O15264)
[19] = molecular target: MAPK3 (human) (UniProt P27361)
[20] = molecular target: MAPK9 (human) (UniProt P45984)
[21] = molecular target: MAPKAPK2 (human) (UniProt P49137)
[22] = molecular target: MAPKAPK5 (human) (UniProt Q8IW41)
[23] = molecular target: MARK1 (human) (UniProt Q9P0L2)
[24] = molecular target: MELK (human) (UniProt Q14680)
[25] = molecular target: MKNK1 (human) (UniProt Q9BUB5)
[26] = molecular target: PAK7 (human) (UniProt Q9P286)
[27] = molecular target: PHKG1 (human) (UniProt Q16816)
[28] = molecular target: PIM1 (human) (UniProt P11309)
[29] = molecular target: PIM2 (human) (UniProt Q9P1W9)
[30] = molecular target: PIM3 (human) (UniProt Q86V86)
[31] = test system: PRKAA1 or PRKAA2 (rat); conditions: accession and sequence are those of the human protein
[32] = molecular target: PRKACA (human) (UniProt P17612)
[33] = molecular target: PRKCZ (human) (UniProt Q05513)
[34] = test system: SGK1 (human), O00141 [S422D]
[35] = molecular target: STK3 (human) (UniProt Q13188)
[36] = molecular target: SYK (human) (UniProt P43405)

Chain of PIM1 (human) (P11309 whole entry, looked up): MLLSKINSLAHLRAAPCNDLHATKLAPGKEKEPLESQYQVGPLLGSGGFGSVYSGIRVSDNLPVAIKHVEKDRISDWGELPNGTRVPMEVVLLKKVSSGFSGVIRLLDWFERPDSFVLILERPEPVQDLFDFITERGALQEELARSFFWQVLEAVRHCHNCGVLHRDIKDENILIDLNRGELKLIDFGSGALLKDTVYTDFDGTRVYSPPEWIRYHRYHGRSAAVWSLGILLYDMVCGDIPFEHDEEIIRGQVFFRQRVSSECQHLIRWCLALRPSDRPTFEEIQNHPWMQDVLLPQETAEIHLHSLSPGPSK
Chain of FGFR1 (human) (P11362 whole entry, looked up): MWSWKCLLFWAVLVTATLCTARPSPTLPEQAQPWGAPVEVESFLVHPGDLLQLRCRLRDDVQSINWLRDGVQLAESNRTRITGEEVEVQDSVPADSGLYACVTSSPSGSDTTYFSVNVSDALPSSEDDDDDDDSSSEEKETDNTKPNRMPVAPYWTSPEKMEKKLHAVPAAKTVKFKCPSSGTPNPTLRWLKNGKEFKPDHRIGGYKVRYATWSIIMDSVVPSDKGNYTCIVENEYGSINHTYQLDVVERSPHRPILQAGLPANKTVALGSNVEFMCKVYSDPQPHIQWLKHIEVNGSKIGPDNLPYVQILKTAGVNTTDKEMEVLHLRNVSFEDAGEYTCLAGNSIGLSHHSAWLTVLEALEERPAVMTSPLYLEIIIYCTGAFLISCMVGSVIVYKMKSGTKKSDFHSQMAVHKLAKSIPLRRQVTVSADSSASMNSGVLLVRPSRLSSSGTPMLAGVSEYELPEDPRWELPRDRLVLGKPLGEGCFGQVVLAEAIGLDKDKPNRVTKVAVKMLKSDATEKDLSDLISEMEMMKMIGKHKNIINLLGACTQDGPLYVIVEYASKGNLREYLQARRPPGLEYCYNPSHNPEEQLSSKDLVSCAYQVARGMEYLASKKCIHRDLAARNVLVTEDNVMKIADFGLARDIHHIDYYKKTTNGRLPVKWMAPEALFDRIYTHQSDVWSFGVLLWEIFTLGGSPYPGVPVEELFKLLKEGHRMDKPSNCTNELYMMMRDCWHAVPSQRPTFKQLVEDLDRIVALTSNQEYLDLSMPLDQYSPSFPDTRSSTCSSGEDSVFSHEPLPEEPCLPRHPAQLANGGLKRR
Chain of EEF2K (human) (O00418 whole entry, looked up): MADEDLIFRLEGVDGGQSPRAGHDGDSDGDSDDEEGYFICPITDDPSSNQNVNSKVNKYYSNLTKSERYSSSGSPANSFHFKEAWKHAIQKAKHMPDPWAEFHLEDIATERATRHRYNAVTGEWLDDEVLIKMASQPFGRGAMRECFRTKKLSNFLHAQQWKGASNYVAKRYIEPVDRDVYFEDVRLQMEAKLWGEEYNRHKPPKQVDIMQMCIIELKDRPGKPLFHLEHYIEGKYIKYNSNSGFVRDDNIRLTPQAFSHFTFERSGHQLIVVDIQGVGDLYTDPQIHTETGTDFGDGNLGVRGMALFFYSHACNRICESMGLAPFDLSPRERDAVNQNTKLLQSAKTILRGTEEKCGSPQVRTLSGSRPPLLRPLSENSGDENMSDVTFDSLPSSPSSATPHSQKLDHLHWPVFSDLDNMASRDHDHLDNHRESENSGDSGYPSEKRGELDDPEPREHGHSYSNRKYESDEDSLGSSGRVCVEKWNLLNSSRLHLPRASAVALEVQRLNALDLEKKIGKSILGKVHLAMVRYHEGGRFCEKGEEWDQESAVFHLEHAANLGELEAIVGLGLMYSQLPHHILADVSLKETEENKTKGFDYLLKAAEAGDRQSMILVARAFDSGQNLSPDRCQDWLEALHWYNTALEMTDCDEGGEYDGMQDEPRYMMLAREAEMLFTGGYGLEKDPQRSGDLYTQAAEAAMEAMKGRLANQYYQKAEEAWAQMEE
Chain of MARK1 (human) (Q9P0L2 whole entry, looked up): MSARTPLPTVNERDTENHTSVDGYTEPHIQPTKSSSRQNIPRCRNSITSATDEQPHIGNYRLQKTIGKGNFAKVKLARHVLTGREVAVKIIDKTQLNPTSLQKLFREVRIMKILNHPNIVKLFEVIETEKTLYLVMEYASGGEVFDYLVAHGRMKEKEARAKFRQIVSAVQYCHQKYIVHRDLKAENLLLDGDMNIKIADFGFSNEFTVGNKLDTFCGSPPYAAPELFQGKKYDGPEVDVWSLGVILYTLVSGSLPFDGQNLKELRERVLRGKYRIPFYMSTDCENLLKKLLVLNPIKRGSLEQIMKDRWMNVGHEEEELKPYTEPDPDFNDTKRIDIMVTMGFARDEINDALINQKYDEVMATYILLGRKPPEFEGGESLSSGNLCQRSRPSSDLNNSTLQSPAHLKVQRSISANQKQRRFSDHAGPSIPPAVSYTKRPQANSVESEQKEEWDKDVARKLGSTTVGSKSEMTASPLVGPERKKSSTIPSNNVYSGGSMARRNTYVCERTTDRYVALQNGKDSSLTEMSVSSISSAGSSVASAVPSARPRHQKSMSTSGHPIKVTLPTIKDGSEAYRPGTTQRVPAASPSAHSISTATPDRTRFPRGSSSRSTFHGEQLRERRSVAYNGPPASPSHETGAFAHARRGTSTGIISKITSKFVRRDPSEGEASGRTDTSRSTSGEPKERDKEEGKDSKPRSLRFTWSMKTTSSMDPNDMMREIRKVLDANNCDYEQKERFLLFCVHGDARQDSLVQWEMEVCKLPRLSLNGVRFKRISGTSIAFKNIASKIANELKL
Chain of PHKG1 (human) (Q16816 whole entry, looked up): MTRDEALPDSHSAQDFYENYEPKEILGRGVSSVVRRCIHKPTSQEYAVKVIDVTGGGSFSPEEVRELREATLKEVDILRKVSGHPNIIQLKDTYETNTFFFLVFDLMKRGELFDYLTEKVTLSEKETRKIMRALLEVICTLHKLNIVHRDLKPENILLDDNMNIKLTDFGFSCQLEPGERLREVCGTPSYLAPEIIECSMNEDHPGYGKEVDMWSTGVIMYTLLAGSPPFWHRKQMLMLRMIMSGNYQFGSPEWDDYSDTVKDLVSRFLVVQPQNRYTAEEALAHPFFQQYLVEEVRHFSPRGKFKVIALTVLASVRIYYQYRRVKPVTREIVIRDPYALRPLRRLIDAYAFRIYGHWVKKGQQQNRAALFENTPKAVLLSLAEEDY
Chain of DAPK1 (human) (P53355 whole entry, looked up): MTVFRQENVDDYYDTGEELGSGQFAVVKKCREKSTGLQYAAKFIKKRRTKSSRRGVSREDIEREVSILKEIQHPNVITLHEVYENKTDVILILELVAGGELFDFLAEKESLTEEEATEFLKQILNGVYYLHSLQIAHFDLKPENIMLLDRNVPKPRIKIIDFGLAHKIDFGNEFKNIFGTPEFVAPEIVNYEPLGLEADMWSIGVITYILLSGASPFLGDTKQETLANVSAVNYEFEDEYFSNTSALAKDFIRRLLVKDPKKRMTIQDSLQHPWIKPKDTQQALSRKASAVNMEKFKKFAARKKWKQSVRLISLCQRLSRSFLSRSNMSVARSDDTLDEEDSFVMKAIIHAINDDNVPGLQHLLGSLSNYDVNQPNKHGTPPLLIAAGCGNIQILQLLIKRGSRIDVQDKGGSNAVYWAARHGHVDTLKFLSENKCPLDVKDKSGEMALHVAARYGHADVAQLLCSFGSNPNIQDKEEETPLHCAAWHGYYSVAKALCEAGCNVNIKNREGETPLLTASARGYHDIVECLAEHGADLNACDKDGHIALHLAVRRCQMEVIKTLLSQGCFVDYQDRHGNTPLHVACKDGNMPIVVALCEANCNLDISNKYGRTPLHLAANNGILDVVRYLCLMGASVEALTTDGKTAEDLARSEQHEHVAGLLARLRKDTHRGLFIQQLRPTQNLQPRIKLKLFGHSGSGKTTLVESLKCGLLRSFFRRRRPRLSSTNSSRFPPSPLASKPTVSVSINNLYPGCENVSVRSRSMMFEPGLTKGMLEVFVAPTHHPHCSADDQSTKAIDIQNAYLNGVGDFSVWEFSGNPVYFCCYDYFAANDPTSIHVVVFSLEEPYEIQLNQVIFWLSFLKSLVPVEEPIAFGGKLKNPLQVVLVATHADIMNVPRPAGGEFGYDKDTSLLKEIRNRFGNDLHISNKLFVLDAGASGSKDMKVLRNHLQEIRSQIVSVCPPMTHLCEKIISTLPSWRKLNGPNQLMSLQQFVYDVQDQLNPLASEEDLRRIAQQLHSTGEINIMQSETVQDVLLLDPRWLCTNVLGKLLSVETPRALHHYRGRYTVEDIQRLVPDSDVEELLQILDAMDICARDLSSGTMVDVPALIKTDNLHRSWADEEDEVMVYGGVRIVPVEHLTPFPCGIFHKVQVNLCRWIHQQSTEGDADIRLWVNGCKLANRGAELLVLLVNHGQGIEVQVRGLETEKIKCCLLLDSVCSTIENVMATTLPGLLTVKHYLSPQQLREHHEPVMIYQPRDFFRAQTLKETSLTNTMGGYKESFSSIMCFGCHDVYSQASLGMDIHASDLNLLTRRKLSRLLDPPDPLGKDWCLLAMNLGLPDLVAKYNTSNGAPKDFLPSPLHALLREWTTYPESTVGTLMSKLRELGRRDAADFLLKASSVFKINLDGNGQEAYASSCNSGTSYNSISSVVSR
Chain of SGK1 (human), O00141 [S422D] (O00141 whole entry S422D, looked up): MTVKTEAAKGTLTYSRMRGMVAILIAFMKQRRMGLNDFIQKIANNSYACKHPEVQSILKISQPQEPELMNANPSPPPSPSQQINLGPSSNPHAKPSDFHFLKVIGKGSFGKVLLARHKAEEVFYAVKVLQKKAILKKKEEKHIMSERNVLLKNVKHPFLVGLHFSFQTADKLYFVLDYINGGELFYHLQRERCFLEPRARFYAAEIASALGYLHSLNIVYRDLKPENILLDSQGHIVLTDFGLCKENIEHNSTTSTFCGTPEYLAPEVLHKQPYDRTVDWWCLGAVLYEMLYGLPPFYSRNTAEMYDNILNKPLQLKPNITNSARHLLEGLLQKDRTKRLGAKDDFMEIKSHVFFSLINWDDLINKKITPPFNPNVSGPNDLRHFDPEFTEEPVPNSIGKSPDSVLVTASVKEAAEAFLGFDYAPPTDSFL

residual activity ([1]; compound 0.1 µM): 86%
residual activity ([1]; compound 1.0 µM): 55%
residual activity ([1]; compound 10.0 µM): 29%
residual activity ([2]; compound 0.1 µM): 77%
residual activity ([2]; compound 1.0 µM): 32%
residual activity ([2]; compound 10.0 µM): 8%
residual activity ([3]; compound 0.1 µM): 107%
residual activity ([3]; compound 10.0 µM): 28%
residual activity ([4]; compound 0.1 µM): 103%
residual activity ([4]; compound 1.0 µM): 62%
residual activity ([4]; compound 10.0 µM): 15%
residual activity ([5]; compound 0.1 µM): 80%
residual activity ([5]; compound 1.0 µM): 31%
residual activity ([5]; compound 10.0 µM): 8%
residual activity ([6]; compound 0.1 µM): 106%
residual activity ([6]; compound 1.0 µM): 97%
residual activity ([6]; compound 10.0 µM): 85%
residual activity ([7]; compound 0.1 µM): 110%
residual activity ([7]; compound 1.0 µM): 106%
residual activity ([7]; compound 10.0 µM): 99%
residual activity ([8]; compound 0.1 µM): 92%
residual activity ([8]; compound 1.0 µM): 105%
residual activity ([8]; compound 10.0 µM): 99%
residual activity ([9]; compound 0.1 µM): 95%
residual activity ([9]; compound 1.0 µM): 91%
residual activity ([9]; compound 10.0 µM): 68%
residual activity ([10]; compound 0.1 µM): 126%
residual activity ([10]; compound 1.0 µM): 99%
residual activity ([10]; compound 10.0 µM): 88%
residual activity ([11]; compound 0.1 µM): 112%
residual activity ([11]; compound 1.0 µM): 108%
residual activity ([11]; compound 10.0 µM): 96%
residual activity ([12]; compound 0.1 µM): 101%
residual activity ([12]; compound 1.0 µM): 108%
residual activity ([12]; compound 10.0 µM): 114%
residual activity ([13]; compound 0.1 µM): 98%
residual activity ([13]; compound 1.0 µM): 95%
residual activity ([13]; compound 10.0 µM): 44%
residual activity ([14]; compound 0.1 µM): 113%
residual activity ([14]; compound 1.0 µM): 108%
residual activity ([14]; compound 10.0 µM): 79%
residual activity ([15]; compound 0.1 µM): 95%
residual activity ([15]; compound 10.0 µM): 91%
residual activity ([16]; compound 0.1 µM): 106%
residual activity ([16]; compound 1.0 µM): 80%
residual activity ([16]; compound 10.0 µM): 10%
residual activity ([17]; compound 0.1 µM): 108%
residual activity ([17]; compound 1.0 µM): 115%
residual activity ([17]; compound 10.0 µM): 97%
residual activity ([18]; compound 0.1 µM): 108%
residual activity ([18]; compound 1.0 µM): 103%
residual activity ([18]; compound 10.0 µM): 94%
residual activity ([19]; compound 0.1 µM): 111%
residual activity ([19]; compound 1.0 µM): 108%
residual activity ([20]; compound 0.1 µM): 123%
residual activity ([20]; compound 1.0 µM): 111%
residual activity ([20]; compound 10.0 µM): 107%
residual activity ([21]; compound 0.1 µM): 24%
residual activity ([21]; compound 1.0 µM): 9%
residual activity ([21]; compound 10.0 µM): 2%
residual activity ([22]; compound 1.0 µM): 67%
residual activity ([22]; compound 10.0 µM): 24%
residual activity ([23]; compound 0.1 µM): 116%
residual activity ([23]; compound 1.0 µM): 107%
residual activity ([23]; compound 10.0 µM): 93%
residual activity ([24]; compound 0.1 µM): 123%
residual activity ([24]; compound 10.0 µM): 77%
residual activity ([25]; compound 0.1 µM): 105%
residual activity ([25]; compound 1.0 µM): 103%
residual activity ([25]; compound 10.0 µM): 83%
residual activity ([26]; compound 0.1 µM): 108%
residual activity ([26]; compound 1.0 µM): 101%
residual activity ([26]; compound 10.0 µM): 101%
residual activity ([27]; compound 0.1 µM): 110%
residual activity ([27]; compound 1.0 µM): 91%
residual activity ([27]; compound 10.0 µM): 86%
residual activity ([28]; compound 0.1 µM): 93%
residual activity ([28]; compound 1.0 µM): 58%
residual activity ([28]; compound 10.0 µM): 17%
residual activity ([29]; compound 0.1 µM): 103%
residual activity ([29]; compound 1.0 µM): 103%
residual activity ([29]; compound 10.0 µM): 66%
residual activity ([30]; compound 0.1 µM): 55%
residual activity ([30]; compound 1.0 µM): 18%
residual activity ([30]; compound 10.0 µM): 3%
residual activity ([31]; compound 0.1 µM): 93%
residual activity ([31]; compound 1.0 µM): 38%
residual activity ([31]; compound 10.0 µM): 9%
residual activity ([32]; compound 0.1 µM): 109%
residual activity ([32]; compound 1.0 µM): 119%
residual activity ([32]; compound 10.0 µM): 108%
residual activity ([33]; compound 0.1 µM): 115%
residual activity ([33]; compound 1.0 µM): 112%
residual activity ([33]; compound 10.0 µM): 106%
residual activity ([34]; compound 0.1 µM): 116%
residual activity ([34]; compound 1.0 µM): 112%
residual activity ([34]; compound 10.0 µM): 112%
residual activity ([35]; compound 0.1 µM): 131%
residual activity ([35]; compound 10.0 µM): 100%
residual activity ([36]; compound 0.1 µM): 94%
residual activity ([36]; compound 10.0 µM): 82%
Structure (SMILES): Cc1ccc(-c2ccc3c(ccc4sc5c(c43)NC[C@@H](C)NC5=O)n2)cn1
